Target: T1, human FXR (NR1H4) (Homo sapiens, UniProt Q96RI1)
T1 construct: host or cells: CHO (Chinese hamster ovary) reporter cells
T1 sequence (Q96RI1 1-486): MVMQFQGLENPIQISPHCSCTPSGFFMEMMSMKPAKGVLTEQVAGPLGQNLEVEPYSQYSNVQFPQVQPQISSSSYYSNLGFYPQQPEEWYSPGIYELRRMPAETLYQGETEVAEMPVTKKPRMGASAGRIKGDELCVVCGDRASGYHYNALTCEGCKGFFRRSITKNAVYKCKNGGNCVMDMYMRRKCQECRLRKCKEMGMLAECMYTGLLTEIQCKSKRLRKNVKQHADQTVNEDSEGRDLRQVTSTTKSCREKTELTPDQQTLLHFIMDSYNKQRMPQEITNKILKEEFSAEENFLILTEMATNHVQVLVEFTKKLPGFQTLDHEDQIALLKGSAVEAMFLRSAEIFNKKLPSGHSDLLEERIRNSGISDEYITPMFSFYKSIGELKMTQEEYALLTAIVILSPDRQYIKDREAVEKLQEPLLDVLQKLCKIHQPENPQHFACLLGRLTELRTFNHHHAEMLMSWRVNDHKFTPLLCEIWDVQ
Assay: Human FXR (NR1H4) Assay (Gal4 promoter driven luciferase reporter, CHO cells)
Type: cell-based
Settings: for EC50: FXR reporter assay in CHO cells expressing human NR1H4, 22 hours incubation, potency ranges; for Efficacy (%): normalized to CDCA set as 100%, FXR reporter assay in CHO cells
Description: Human FXR (NR1H4) Assay Determination of a ligand mediated Gal4 promoter driven transactivation to quantify ligand binding mediated activation of FXR. FXR Reporter Assay kit purchased from Indigo Bioscience (Catalogue number: IB00601) to determine the potency and efficacy of compound developed by Enanta that can induce FXR activation. The principle application of this reporter assay system is to quantify functional activity of human FXR. The assay utilizes non-human mammalian cells, CHO (Chinese hamster ovary) cells engineered to express human NR1H4 protein (referred to as FXR). Reporter cells also incorporate the cDNA encoding beetle luciferase which catalyzes the substrates and yields photon emission. Luminescence intensity of the reaction is quantified using a plate-reading luminometer, Envision. Reporter Cells include the luciferase reporter gene functionally linked to an FXR responsive promoter. Thus, quantifying changes in luciferase expression in the treated reporter cells provides a sensitive surrogate measure of the changes in FXR activity. […] The assay is according to the manufacturer's instructions. In brief, the assay was performed in white, 96 well plates using final volume of 100 ul containing cells with different doses of compounds. Retrieve Reporter Cells from −80° C. storage. Perform a rapid thaw of the frozen cells by transferring a 10 ml volume of 37° C. cell recovery medium into the tube of frozen cells. Recap the tube of Reporter Cells and immediately place it in a 37° C. water bath for 5-10 minutes. Retrieve the tube of Reporter Cell Suspension from the water bath. Sanitize the outside surface of the tube with a 70% alcohol swab, and then transfer it into the cell culture hood. Dispense 90 μl of cell suspension into each well of the 96-well Assay Plate. Transfer the plate into 37° C. incubator, allowing the cells adherent to the bottom of the well. Dilute compounds in Dilution Plate (DP), and administrate to cells at Assay Plate (AP). DMSO content of the samples was kept at 0.2%. Cells were incubated for additional 22 hours before luciferase activities were measured. Thirty minutes before intending to quantify FXR activity, remove Detection Substrate and Detection Buffer from the refrigerator and place them in a low-light area so that they may equilibrate to room temperature. Remove the plate's lid and discard all media contents by ejecting it into an appropriate waste container. Gently tap the inverted plate onto a clean absorbent paper towel to remove residual droplets. Cells will remain tightly adhered to well bottoms. Add 100 μl of luciferase detection reagent to each well of the assay plate. Allow the assay plate to rest at room temperature for at least 5 minutes following the addition of LDR. Set the instrument (Envision) to perform a single 5 second “plate shake” prior to reading the first assay well. Read time may be 0.5 second (500 mSec) per well.

| EC50 [µM] | Efficacy (%) | SMILES |
| --- | --- | --- |
| < 0.1 | 304 | O=C(O)c1ccc2nc(N3CCC(OCc4c(-c5c(Cl)cccc5Cl)noc4C4CC4)CC3)sc2c1 [Compound (1), reference compound] |
| 0.1 to 1 | 122 | O=C(NS(=O)(=O)C1CC1)c1ccc2nc(N3CCC(OCc4c(-c5c(Cl)cccc5Cl)noc4C4CC4)CC3)sc2c1 [Example 11] |
| < 0.1 | 129 | CN(C)S(=O)(=O)NC(=O)c1ccc2nc(N3CCC(OCc4c(-c5c(Cl)cccc5Cl)noc4C4CC4)CC3)sc2c1 [Example 26] |
